# Legend:
# [1] = background statement; cited from earlier work
# [2] = test system: diabetic rat model; conditions: Babu et al. 1997; cited from earlier work
# [3] = test system: high fructose fed (HFF) rats; experiment: Example 2: effect of lipoxygenase inhibitors on serum metabolic components of HFF rats; type: in vivo, Sprague-Dawley rats; conditions: for Cholesterol, Day 15 / Cholesterol, Day 19: serum total cholesterol; for Cholesterol, Day 19 / Glucose, Day 19 / FFA, Day 19 / Insulin, Day 19 / TG, Day 19: Day 19 after 4 days BID oral gavage (NDGA 250 mg/kg, BW 755c 100 mg/kg); for Glucose, Day 19: 3 hours after last dose
# Description: Male rats were initially divided into HFF or chow (control) groups and maintained for 14 days on the prescribed diet. […] On days 15-19 all groups were treated by oral gavage twice daily with either drug or vehicle. On days 15 and 19 serum was collected for analysis. On day 20, the groups were subdivided to receive either LPS or vehicle (saline). Post-LPS treatment, the animals were sacrificed and their livers were isolated for analysis.
# Male Sprague-Dawley rats weighing approximately 180-200 g first maintained on a rat chow diet and then were divided into four groups, three of which were switched to a high-fructose diet (Harlan Teklad, Madison, Wis.) that provided 60% of total calories as fructose (Day 1). On day 15 of treatment, the rats were fasted for 4 hours and tail vein blood was collected for baseline measurements of serum TG, glucose, insulin and free fatty acids (FFA) as previously described (Gowri et al., Am. J. Hypertension, 12: 744-746 (1999)). […] The chow group (diet control) was treated with vehicle. During the treatment regimen the animals were maintained on high-fructose diet. […] On day 20, four animals in each group were injected (iv) with 0.5 mg/kg BW Salmonella enterifdis endotoxin (lipopolysaccharide, LPS) or normal saline under light anaesthesia. After 2 hours, serum was collected for corticosterone measurement, as described previously (Kraemer et al., Endocrinology, 143: 801-806 (2002)), and then the animals were sacrificed and tissues removed, snap-frozen in liquid nitrogen and stored at −80° C. until analyzed. The local committee on animal care approved all animal protocols.
# Statistical analysis were performed by either paired or unpaired t-test using GraphPad Prism version 3.00 for Windows, GraphPad Software, San Diego Calif. USA. A difference between groups was considered significant if P was less than 0.05. Normalized Western Blot data were obtained as a ratio of the units measured for phosphorylated protein divided by the units measured for total protein. Statistical analyses were performed on the normalized data.
# [4] = test system: in vivo animal models; conditions: Maya et al. 2000; Scribner et al. 2000; cited from earlier work
# [5] = test system: high-fructose diet fed rats; experiment: Example 1: in vivo efficacy of 5-LO inhibitors in diet-induced model of hypertriglyceridemia and hypertension (serum TG, FFA, insulin, glucose, body weight); design: species or system Sprague-Dawley rats; conditions: oral gavage twice a day for 5 days; for effect on serum triglycerides: NDGA 250 mg/kg (p=0.0004), BW 755c 100 mg/kg (p=0.0002), day 0 vs day 5, FIG. 1; for effect on serum insulin levels: NDGA 250 mg/kg (p=0.003); for effect on serum insulin levels / effect on increase in serum free fatty acids during treatment / effect on serum glucose: BW 755c 100 mg/kg; for effect on increase in serum free fatty acids during treatment / effect on serum glucose: NDGA 250 mg/kg
# From the text: Male Sprague-Dawley rats weighting 175-200 g were used in these studies. […]. Rats were first maintained on a chow diet for ˜1 wk and then were divided into four groups (7 or 8 animals in each group). Three groups were switched to a high-fructose diet (Harlan Teklad, Madison, Wis.) that provided 60% of total calories as fructose. The fourth group was maintained on normal chow to serve as an overall control group. After 14 days on the high-fructose diet, the degree of hypertriglyceridemia was evaluated by determining the total plasma TG levels. On day 0 of treatment, tail vein blood was collected for baseline measurements of serum TG, glucose, insulin, and FFA. […] All animals were dosed two times a day for 5 days (days 1-5), delivered by oral gavage. On day 5 of treatment (approximately 3 hours after the oral dose) vein blood was collected for measurements of serum TG, glucose, insulin, and FFA. During the treatment period, rats were maintained on their prescribed diets. Body weights were measured on day 0 and day 5.
# Serum samples were used to measure TG and glucose concentrations by enzymatic […] methods using Sigma Diagnostic kits (St. Louis, Mo.). Serum insulin concentrations were by RIA using a Linco Rat Insulin RIA kit (St. Charles, Mo.). FFA concentrations were measured using the nonesterified fatty acid (NEFA) C kit by the ACS-ACOD method following the instructions of the manufacturer.
# Data was statistically analyzed using paired t-tests to determine significance.
# [6] = Day 15 = baseline before drug treatment, mean ± S.E., n = 7-8
# [7] = serum, Day 15 = baseline before drug treatment, mean ± S.E., n = 7-8
Compound,bioavailability [1],properties in in vivo diabetic rat model [2],effect on fasting blood glucose ([3]; four days BID oral treatment),effect on fasting serum insulin ([3]; four days BID oral treatment),effect on serum total cholesterol ([3]; four days BID oral treatment),"Cholesterol, Day 15 [3, 6] [mg/dL]","Cholesterol, Day 19 ([3]; mean ± S.E., n = 7-8)","FFA, Day 15 [3, 7] [μEq/L]","Insulin, Day 15 [3, 7] [ng/mL]","TG, Day 15 [3, 7] [mg/dL]","Glucose, Day 19 ([3]; serum, mean ± S.E., n = 7-8) [mg/dL]","FFA, Day 19 ([3]; serum, mean ± S.E., n = 7-8) [μEq/L]","Insulin, Day 19 ([3]; serum, mean ± S.E., n = 7-8)","TG, Day 19 ([3]; serum, mean ± S.E., n = 7-8)",properties in in vivo animal models [4],effect on serum triglycerides [5],effect on serum insulin levels [5],effect on increase in serum free fatty acids during treatment [5],effect on serum glucose [5],"Glucose, Day 15 ([3]; serum, Day 15 = baseline before drug treatment, 4 h fasted, mean ± S.E., n = 7-8) [mg/dL]"
COc1cc(/C=C/C(=O)CC(=O)/C=C/c2ccc(O)c(OC)c2)ccc1O [Curcumin],poorly bioavailable,hypolidemic properties,–,–,–,–,–,–,–,–,–,–,–,–,–,–,–,–,–,–
"C[C@H](Cc1ccc(O)c(O)c1)[C@@H](C)Cc1ccc(O)c(O)c1 [NDGA, nordihydroguaiaretic acid]",poorly bioavailable,–,without significantly altering,significantly decreased,significantly reduced,118.6 ± 3,98.3 ± 4(^7) mg/dL,599 ± 51,2.3 ± 0.3,384 ± 48,122 ± 8,611 ± 101,0.9 ± 0.1(′) ng/mL,97 ± 6 mg·s/dL,hypolipidemic and antihypertensive properties,significantly reduced,significantly lowered,ameliorated,without increasing serum glucose,–
"NC1=NN(c2cccc(C(F)(F)F)c2)CC1 [BW 755c, 4,5-dihydro-1-(3-(trifluoromethyl)phenyl)-1H-pyrazol-3-amine]",–,–,–,–,Neither of these effects was observed,107.6 ± 3,104.5 ± 2 mg/dL,554 ± 71,1.6 ± 0.3,296 ± 31,114 ± 7,504 ± 42,1.7 ± 0.3 ng/mL,112 ± 20(^4) mg/dL,–,significantly reduced,no effect,ameliorated,no effect,119 ± 7

# From patent US20040198800A1, “Lipoxygenase inhibitors as hypolipidemic and anti-hypertensive agents” (priority 2002, published 2004)
